This is an account of results in publication PMC4036227 (Journal of medicinal chemistry, 2013).

The target of assay [1] is T1, S31N mutant M2 proton channel (full length AM2 protein) (Influenza A virus, UniProt P0DOF5, S31N). It is filed as biochemical. To be noted: 100 µM.
Assay [2] concerns the target T1, S31N mutant M2 proton channel (full length AM2 protein). To be noted: cited from earlier work.
For a further assay, the system named is A/WSN/33-N31S (WT) virus. It is filed as cell-based.

Like-named read-outs stand apart in the source and are kept apart here.

Take `c1ccc(CNC23CC4CC(CC(C4)C2)C3)nc1` [Compound 33]: in assay [1], the “S31N % inhibition (TEVC)” value is reported as 0%.
For pinanamine, the “S31N % inhibition (TEVC)” value in assay [2] is reported as 0%.
Consider `Oc1ccc(CNC23CC4CC(CC(C4)C2)C3)c(O)c1` [Compound 44, 4-(adamantan-1-ylaminomethyl)-benzene-1,3-diol], for which, in the assay with A/WSN/33-N31S (WT) virus, the “inhibition of plaque formation, WT virus” value is listed as “complete inhibition”.
With `CC(N)C12CC3CC(CC(C3)C1)C2` (stereo not shown) [Compound 2, rimantadine], the “S31N % inhibition (TEVC)” value in assay [1] is on record as 13%.
Turning to `COC(=O)[C@H](Cc1cnc[nH]1)NCC12CC3CC(CC(C3)C1)C2` [Compound 3], in assay [1], the “S31N % inhibition (TEVC)” value came out at 0%.
The same measure, in the same setting: under `C[C@@H]1[C@@H](/N=C/c2ccc(O)cc2)C[C@H]2C[C@@H]1C2(C)C` [Compound 4] stands 0%; under `NC12CC3CC(CC(C3)C1)C2` [Compound 1, amantadine], 35 ± 2/ %.
